From US9351818B2, “Process for the synchronization of ovulation for timed breeding without heat detection” (priority 2003, dated 2016)

Tests used:
[1] = test system: postpartum sows; assay: Single timed deslorelin injection 96 hours post-weaning with single timed insemination, no estrus detection (Example 3); type: in vivo, swine; details: 50 mcg in SAIB at 96 hours post-weaning; single insemination 28+/-2 hours later
Method: Approximately 170 postpartum sows were randomly divided into two equal groups comprised of controls and treated. Following weaning, the controls were detected for estrus and bred following the normal standard operating procedures for the farms on which they resided. The treated sows received a 50 mcg dose of deslorelin in SAIB at 96 hours post-weaning and were bred with a single insemination 28+/−2 hours later with no regard to estrus detection. The sows were examined for pregnancy by ultrasound at 21 days and slaughtered around 28 days post breeding. The entire reproductive tract was removed and corpora lutea and embryos were counted.

[2] = test system: mature postpartum sows; assay: Intravulvar deslorelin at estrus detection with AI in mature postpartum sows (Example 2); type: in vivo, swine; details: 50 μg deslorelin acetate intravulvar at first estrus detection, then AI again if in estrus the next day
Method: Sows were assigned randomly in blocks of two to either control or to be injected intravulvar with 50 mcg of deslorelin in SAIB at the time of estrus detection for sows first detected in estrus in the a.m. and 12 hours later for those first detected in estrus in the p.m. Treated animals were bred AI upon detected estrus and again 24 hours later if still in estrus. Controls received a saline injection on first detected estrus behavior estrus detection and were bred according to the farm's normal procedures.

SMILES: CCNC(=O)[C@@H]1CCCN1C(=O)[C@H](CCCN=C(N)N)NC(=O)[C@H](CC(C)C)NC(=O)[C@@H](Cc1c[nH]c2ccccc12)NC(=O)[C@H](Cc1ccc(O)cc1)NC(=O)[C@H](CO)NC(=O)[C@H](Cc1c[nH]c2ccccc12)NC(=O)[C@H](Cc1cnc[nH]1)NC(=O)[C@@H]1CCC(=O)N1 [Deslorelin, deslorelin]
- Embryo Survival [1]: 64%
- Pregnancy Rate [2]: 91%
